ChEMBL document CHEMBL1201862, “PubChem BioAssay data set” (2004)
Counter-ions that a name gives are not always drawn.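 Protocol summary: plate cells (96-well), add compound at 5 concentrations, incubate 48 h, interpolate endpoints linearly. GI50: concentration for 50% inhibition of growth.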 The source made the active and inactive calls. Cut-off read from the data, not from the text of the source: active = GI50 up to about 1.1 µM and inactive = higher.

Legend:
Test in all cases: growth of human tumour cells (NCI), 48 h
786-0 = test system: 786-0
ACHN = test system: ACHN
CAKI-1 = test system: CAKI-1
CCRF-CEM = test system: CCRF-CEM
EKVX = test system: EKVX
HL-60 = test system: HL-60
HT-29 = test system: HT-29
LXFL 529 = test system: LXFL 529
NCI-H23 = test system: NCI-H23
OVCAR-3 = test system: OVCAR-3
RPMI-8226 = test system: RPMI-8226
RXF 393 = test system: RXF 393
SF-295 = test system: SF-295
SK-MEL-28 = test system: SK-MEL-28
SK-MEL-2 = test system: SK-MEL-2
SK-MEL-5 = test system: SK-MEL-5
UACC-257 = test system: UACC-257
DU-145 = test system: DU-145
MDA-MB-231 = test system: MDA-MB-231
NCI/ADR-RES = test system: NCI/ADR-RES

| SMILES | GI50 (786-0) | GI50 (ACHN) | GI50 (CAKI-1) | GI50 (CCRF-CEM) | GI50 (EKVX) | GI50 (HL-60) | GI50 (HT-29) | GI50 (LXFL 529) | GI50 (NCI-H23) | GI50 (OVCAR-3) | GI50 (RPMI-8226) | GI50 (RXF 393) | GI50 (SF-295) | GI50 (SK-MEL-28) | GI50 (SK-MEL-2) | GI50 (SK-MEL-5) | GI50 (UACC-257) | GI50 (DU-145) | GI50 (MDA-MB-231) | GI50 (NCI/ADR-RES) |
| --- | --- | --- | --- | --- | --- | --- | --- | --- | --- | --- | --- | --- | --- | --- | --- | --- | --- | --- | --- | --- |
| CCOC(=O)C1(C)CCC(C(=O)OC)C1=O (stereo not drawn) | > 100 µM (inactive) | > 100 µM (inactive) | > 100 µM (inactive) | 21.9 µM (inactive) | > 100 µM (inactive) | 53.1 µM (inactive) | 65.5 µM (inactive) | > 100 µM (inactive) | > 100 µM (inactive) | > 100 µM (inactive) | > 100 µM (inactive) | > 100 µM (inactive) | > 100 µM (inactive) | > 100 µM (inactive) | > 100 µM (inactive) | > 100 µM (inactive) | > 100 µM (inactive) |  |  |  |
| O=c1/c(=C/c2ccc3c(c2)OCO3)sc2nnc(-c3ccco3)n12 | > 100 µM (inactive) | > 100 µM (inactive) | > 100 µM (inactive) | > 100 µM (inactive) | > 100 µM (inactive) | > 100 µM (inactive) |  | > 100 µM (inactive) | > 100 µM (inactive) | > 100 µM (inactive) | > 100 µM (inactive) | > 100 µM (inactive) | 82 µM (inactive) | > 100 µM (inactive) | > 100 µM (inactive) | > 100 µM (inactive) | 15.3 µM (inactive) |  |  |  |
| Brc1ccc(-c2nnc(-c3nn(-c4ccccc4)c4nc5ccccc5nc34)o2)cc1 | > 100 µM (inactive) | > 100 µM (inactive) | > 100 µM (inactive) | 26.1 µM (inactive) | > 100 µM (inactive) | 27.3 µM (inactive) | > 100 µM (inactive) | 31.5 µM (inactive) | > 100 µM (inactive) | 95.7 µM (inactive) | 30.5 µM (inactive) | > 100 µM (inactive) | > 100 µM (inactive) | > 100 µM (inactive) | 60 µM (inactive) | 21.3 µM (inactive) | 92 µM (inactive) |  |  |  |
| COc1ccc(C[P+]2(c3ccccc3)CCCCC2)cc1.O=[N+]([O-])c1ccc(C[P+]2(c3ccccc3)CCCCC2)cc1.[O-][Cl+3]([O-])([O-])[O-].[O-][Cl+3]([O-])([O-])[O-] | > 100 µM (inactive) | > 100 µM (inactive) | > 100 µM (inactive) | > 100 µM (inactive) | > 100 µM (inactive) | 20.6 µM (inactive) | 10 µM (inactive) | 16.4 µM (inactive) | 66.8 µM (inactive) | 41 µM (inactive) | 24.9 µM (inactive) | 95.9 µM (inactive) | > 100 µM (inactive) | 42.2 µM (inactive) | > 100 µM (inactive) | 23.7 µM (inactive) | 29.6 µM (inactive) |  |  |  |
| Cc1n(-c2ccccc2)c2c([n+]1Cc1ccc([N+](=O)[O-])cc1)C(=O)c1ccccc1C2=O | 4.31 µM (inactive) | 3.72 µM (inactive) | 15.7 µM (inactive) | 1.82 µM (inactive) | 2.49 µM (inactive) | 0.409 µM (active) | 2.38 µM (inactive) | 1.42 µM (inactive) | 1.9 µM (inactive) | 0.182 µM (active) | 0.845 µM (active) | 7.66 µM (inactive) | 5.45 µM (inactive) | 1.81 µM (inactive) | 1.48 µM (inactive) | 1.85 µM (inactive) | 1.69 µM (inactive) | 1.85 µM (inactive) | 1.59 µM (inactive) | 2.05 µM (inactive) |
| CCCCCCCCCC1CC(=O)Oc2cccc(O)c21 (stereo not drawn) | 10.1 µM (inactive) | 30.3 µM (inactive) | 32.7 µM (inactive) | 27.4 µM (inactive) | 40.7 µM (inactive) | 27.9 µM (inactive) | 24.1 µM (inactive) | 24.4 µM (inactive) | 3.31 µM (inactive) | 16.3 µM (inactive) | 28.4 µM (inactive) | 23.8 µM (inactive) | 11.6 µM (inactive) | 29.6 µM (inactive) | 20.6 µM (inactive) | 15.2 µM (inactive) | 41.3 µM (inactive) |  |  |  |
| NCCSSCCN [CYSTAMINE HYDROCHLORIDE] | > 100 µM (inactive) | > 100 µM (inactive) | > 100 µM (inactive) | 56.1 µM (inactive) | > 100 µM (inactive) | > 100 µM (inactive) | > 100 µM (inactive) | > 100 µM (inactive) | > 100 µM (inactive) | > 100 µM (inactive) | > 100 µM (inactive) | > 100 µM (inactive) | > 100 µM (inactive) | > 100 µM (inactive) | > 100 µM (inactive) | > 100 µM (inactive) |  | > 100 µM (inactive) | > 100 µM (inactive) | > 100 µM (inactive) |
